Tests used:
[1] = target: T1, NS3/NS4A-2 (full-length HCV NS3 protease complexed with NS4A-2) (Hepatitis C virus genotype 1a, UniProt P27958); test: NS3 inhibition assay (NS3-NS4 protease assay); assay type: biochemical; details: recombinant full-length NS3/NS4A-2, RETS1 substrate, kinetic fluorescence read; read-out: NS3-NS4 IC50
T1 construct: Recombinant E. coli or Baculovirus full-length NS3; host or cells: E. coli or baculovirus (insect cells)
Protocol: Recombinant E. coli or Baculovirus full-length NS3 was diluted to 3.33 μM with assay buffer and transferred material to an eppendorf tube and place in water bath in 4° C. refrigerator. The appropriate amount of NS4A-2 to 8.3 mM in assay buffer was added to equal the volume of NS3 in step 2.1.1 (conversion factor −3.8 mg/272 μL assay buffer). The material was transferred to an eppendorf tube and place in water bath in 4° C. refrigerator.
After equilibration to 4° C., equal volumes of NS3 and NS4A-2 solutions were combined in an eppendorf tube, mix gently with a manual pipettor, and incubate mixture for 15 minutes in the 4° C. water bath. Final concentrations in the mixture are 1.67 μM NS3, 4.15 mM NS4A-2 (2485-fold molar excess NS4A-2).
After 15 minutes at 4° C., the NS3/NS4A-2 eppendorf tube was removed and place it in a room temperature water bath for 10 minutes. NS3/NS4A-2 was aliquoted at appropriate volumes and store at −80° C. (E. coli NS3 run at 2 nM in assay, aliquot at 25 μL. BV NS3 run at 3 nM in assay, aliquot at 30 μL).
Sample compounds were dissolved to 10 mM in DMSO then diluted to 2.5 mM (1:4) in DMSO. Typically, compounds were added to an assay plate at 2.5 mM concentration, yielding upon dilution a starting concentration of 50 microM in the assay inhibition curve. Compounds were serial diluted in assay buffer to provide test solutions at lower concentrations.
The E. coli. NS3/NS4A-2 was diluted to 4 nM NS3 (1:417.5 of 1.67 μM stock−18 μL1.67 μM stock+7497 μL assay buffer). The BV NS3/NS4A-2 was diluted to 6 nM NS3 (1:278.3 of 1.67 μM stock−24 μL1.67 μM stock+6655 μL assay buffer). Using the manual multichannel pipettor, careful not to introduce bubbles into the plate, add 50 μL assay buffer to wells A01-H01 of a black Costar 96-well polypropylene storage plate.
Using the manual multichannel pipettor, careful not to introduce bubbles into the plate, add 50 μL of diluted NS3/NS4A-2 from step 2.2.6 to wells A02-H12 of plate in step 2.2.7. Using the manual multichannel pipettor, careful not to introduce bubbles into the plate, transfer 25 μL of the wells in drug dilution plate in step 2.2.5 to corresponding wells in assay plate in step 2.2.8. Change tips on multichannel pipettor for each row of compounds transferred. Using the manual multichannel pipettor, careful not to introduce bubbles into the plate, mix the wells from the assay plate in step 2.2.9 by aspirating and dispensing 35 μL of the 75 μL in each well five times. Change tips on multichannel pipettor for each row of wells mixed. Cover plate with a polystyrene plate lid and pre-incubate the plate from step 2.2.10 containing NS3 protease and sample compounds 10 minutes at room temperature. While plate from step 2.2.11 is pre-incubating, dilute RETS1 substrate in a 15 mL polypropylene centrifuge tube. Dilute RETS1 substrate to 8 μM (1:80.75 of 646 μM stock−65 μL 646 μM stock+5184 μL assay buffer).
After the plate in step is done pre-incubating, and using the manual multichannel, add 25 μL of substrate to all wells on the plate. Quickly mix the plate as in step 2.2.10, mixing 65 μL of the 100 μL in the wells.
Read the plate in kinetic mode on the Molecular Devices SpectraMax Gemini XS plate reader. Reader settings: Read time: 30 minutes, Interval: 36 seconds, Reads: 51, Excitation λ: 335 nm, Emission λ: 495 nm, cutoff: 475 nm, Automix: off, Calibrate: once, PMT: high, Reads/well: 6, Vmax pts: 21 or 28/51 depending on length of linearity of reaction
IC50s are determined using a four parameter curve fit equation, and converted to Ki's using the following Km's: • Full-length E. coli NS3−2.03 μM • Full-length BV NS3−1.74 μM • where Ki=IC50/(1+[S]/Km)) • Quantitation by ELISA of the Selectable Marker Protein, Neomycin Phosphotransferase II (NPTII) in the HCV Sub-Genomic Replicon, GS4.3

[2] = system: HCV sub-genomic replicon (1377/NS3-3') in HuH-7 hepatoma cells (GS4.3); test: Quantitation by ELISA of NPTII in the HCV sub-genomic replicon, GS4.3; assay type: cell-based, hepatitis C virus (HCV); details: Hepatitis C virus, Huh-7; GS4.3 cells, 72 h incubation, NPTII ELISA; read-out: Replicon EC50
Protocol: The HCV sub-genomic replicon (1377/NS3-3′, accession No. AJ242652), stably maintained in HuH-7 hepatoma cells, was created by Lohmann et al. Science 285: 110-113 (1999). The replicon-containing cell culture, designated GS4.3, was obtained from Dr. Christoph Seeger of the Institute for Cancer Research, Fox Chase Cancer Center, Philadelphia, Pa.
GS4.3 cells were maintained at 37° C., 5% CO2, in DMEM (Gibco 11965-092) supplemented with L-glutamine 200 mM (100×) (Gibco25030-081), non-essential amino acids (NEAA) (Biowhittaker 13-114E), heat-inactivated (HI) Fetal Bovine Serum (FBS) (Hyclone SH3007.03) and 750 μg/mL geneticin (G418)(Gibco 10131-035). Cells were sub-divided 1:3 or 4 every 2-3 days.
24 h prior to the assay, GS4.3 cells were collected, counted, and plated in 96-well plates (Costar 3585) at 7500 cells/well in 100 μL standard maintenance medium (above) and incubated in the conditions above. To initiate the assay, culture medium was removed, cells were washed once with PBS (Gibco 10010-023) and 90 μl Assay Medium (DMEM, L-glutamine, NEAA, 10% HI FBS, no G418) was added. Inhibitors were made as a 10× stock in Assay Medium, (3-fold dilutions from 10 μM to 56 pM final concentration, final DMSO concentration 1%), 10 μL were added to duplicate wells, plates were rocked to mix, and incubated as above for 72 h.
An NPTII Elisa kit was obtained from AGDIA, Inc. (Compound direct ELISA test system for Neomycin Phosphotransferase II, PSP 73000/4800). Manufacturer's instructions were followed, with some modifications. 10×PEB-1 lysis buffer was made up to include 500 μM PMSF (Sigma P7626, 50 mM stock in isopropanol). After 72 h incubation, cells were washed once with PBS and 150 μL PEB-1 with PMSF was added per well. Plates were agitated vigorously for 15 minutes, room temperature, then frozen at −70° C. Plates were thawed, lysates were mixed thoroughly, and 100 μl were applied to an NPTII Elisa plate. A standard curve was made. Lysate from DMSO-treated control cells was pooled, serially diluted with PEB-1 with PMSF, and applied to duplicate wells of the ELISA plate, in a range of initial lysate amount of 150 μL-2.5 μL. In addition, 100 μL buffer alone was applied in duplicate as a blank. Plates were sealed and gently agitated at room temperature for 2 h. Following capture incubation, the plates were washed 5×300 μL with PBS-T (0.5% Tween-20, PBS-T was supplied in the ELISA kit). For detection, a 1× dilution of enzyme conjugate diluent MRS-2 (5×) was made in PBS-T, into which 1:100 dilutions of enzyme conjugates A and B were added, as per instructions. Plates were resealed, and incubated with agitation, covered, room temperature, for 2 h. The washing was then repeated and 100 μL of room temperature TMB substrate was added. After approximately 30 minutes incubation (room temperature, agitation, covered), the reaction was stopped with 50 μL 3M sulfuric acid. Plates were read at 450 nm on a Molecular Devices Versamax plate reader.
Inhibitor effect was expressed as a percentage of DMSO-treated control signal, and inhibition curves were calculated using a 4-parameter equation: y=A+((B−A)/(1+((C/x)^D))), where C is half-maximal activity or EC50.

T1 sequence (P27958 1027-1657, one chain of several): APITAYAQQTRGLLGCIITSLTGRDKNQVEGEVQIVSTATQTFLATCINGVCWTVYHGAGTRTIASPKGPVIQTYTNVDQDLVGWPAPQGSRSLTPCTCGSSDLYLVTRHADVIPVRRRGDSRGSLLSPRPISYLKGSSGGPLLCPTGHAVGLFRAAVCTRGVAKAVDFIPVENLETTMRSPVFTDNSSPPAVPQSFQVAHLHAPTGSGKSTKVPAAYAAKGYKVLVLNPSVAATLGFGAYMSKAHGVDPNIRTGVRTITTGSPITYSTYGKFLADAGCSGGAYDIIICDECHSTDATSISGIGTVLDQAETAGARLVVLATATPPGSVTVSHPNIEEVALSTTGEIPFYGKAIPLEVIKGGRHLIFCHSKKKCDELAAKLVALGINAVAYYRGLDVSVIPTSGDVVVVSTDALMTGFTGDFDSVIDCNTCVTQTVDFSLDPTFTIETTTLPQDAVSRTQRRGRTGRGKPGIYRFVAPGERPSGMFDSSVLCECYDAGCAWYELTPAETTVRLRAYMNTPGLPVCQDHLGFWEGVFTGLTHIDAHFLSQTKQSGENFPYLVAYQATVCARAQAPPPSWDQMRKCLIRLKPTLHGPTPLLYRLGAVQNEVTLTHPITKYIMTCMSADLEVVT

| Compound | IC50 [1] | EC50 [2] |
| --- | --- | --- |
| C=C[C@@H]1C[C@]1(NC(=O)C1Cc2cc(Oc3cccc(Cl)c3)ccc2CN1C(=O)[C@@H](Nc1ccc(F)cc1)C(C)(C)C)C(=O)NS(=O)(=O)C1CC1 (stereo partly drawn) [Compound 10, 6-(3-chlorophenoxy)-N-((1R,2S)-1-(cyclopropylsulfonylcarbamoyl)-2-vinylcyclopropyl)-2-((S)-2-(4-fluorophenylamino)-3,3-dimethylbutanoyl)-1,2,3,4-tetrahydroisoquinoline-3-carboxamide] | < 100 nM | 1000 to 10000 nM |
| C=C[C@@H]1C[C@]1(NC(=O)[C@@H]1Cc2cc(Oc3cccc(Cl)c3)ccc2CN1C(=O)[C@@H](Nc1ccc(F)cc1)C(C)(C)C)C(=O)NS(=O)(=O)C1CC1 [Compound 11, (S)-6-(3-chlorophenoxy)-N-((1R,2S)-1-(cyclopropylsulfonylcarbamoyl)-2-vinylcyclopropyl)-2-((S)-2-(4-fluorophenylamino)-3,3-dimethylbutanoyl)-1,2,3,4-tetrahydroisoquinoline-3-carboxamide] | < 100 nM | 10000 to 50000 nM |
| C=C[C@@H]1C[C@]1(NC(=O)[C@H]1Cc2cc(Oc3cccc(Cl)c3)ccc2CN1C(=O)[C@@H](Nc1ccc(F)cc1)C(C)(C)C)C(=O)NS(=O)(=O)C1CC1 [Compound 12, (R)-6-(3-chlorophenoxy)-N-((1R,2S)-1-(cyclopropylsulfonylcarbamoyl)-2-vinylcyclopropyl)-2-((S)-2-(4-fluorophenylamino)-3,3-dimethylbutanoyl)-1,2,3,4-tetrahydroisoquinoline-3-carboxamide] | 100 to 1000 nM | 10000 to 50000 nM |
| C=C[C@@H]1C[C@]1(NC(=O)C1Cc2cc(Oc3cccc(Cl)c3)ccc2CN1C(=O)[C@@H](Nc1cccc(C(C)(C)C)c1)C(C)C)C(=O)NS(=O)(=O)C1CC1 (stereo partly drawn) [Compound 13, 2-((S)-2-(3-tert-butylphenylamino)-3-methylbutanoyl)-6-(3-chlorophenoxy)-N-((1R,2S)-1-(cyclopropylsulfonylcarbamoyl)-2-vinylcyclopropyl)-1,2,3,4-tetrahydroisoquinoline-3-carboxamide] | < 100 nM | 10000 to 50000 nM |
| C=C[C@@H]1C[C@]1(NC(=O)[C@@H]1C[C@@H](OC(=O)N2Cc3cccc(F)c3C2)CN1C(=O)[C@@H](Nc1ccc(F)cc1)C(C)C)C(=O)NS(=O)(=O)C1CC1 [Compound 33, (3R,5S)-5-((1R,2S)-1-(cyclopropylsulfonylcarbamoyl)-2-vinylcyclopropylcarbamoyl)-1-((S)-2-(4-fluorophenylamino)-3-methylbutanoyl)pyrrolidin-3-yl 4-fluoroisoindoline-2-carboxylate] | < 100 nM | 100 to 1000 nM |
| C=C[C@@H]1C[C@]1(NC(=O)[C@@H]1C[C@@H](OC(=O)N2Cc3cccc(Cl)c3C2)CN1C(=O)[C@@H](Nc1ccc(F)cc1)C(C)C)C(=O)NS(=O)(=O)C1CC1 [Compound 34, [(3R,5S)-5-((1R,2S)-1-(cyclopropylsulfonylcarbamoyl)-2-vinylcyclopropylcarbamoyl)-1-((S)-2-(4-fluorophenylamino)-3-methylbutanoyl)pyrrolidin-3-yl]4-chloroisoindoline-2-carboxylate] | < 100 nM | < 100 nM |
| C=CCCCCC[C@H](Nc1ccc(F)cc1)C(=O)N1C[C@H](OC(=O)N2Cc3cccc(F)c3C2)C[C@H]1C(=O)N[C@]1(C(=O)NS(=O)(=O)C2CC2)C[C@H]1C=C [Compound 35, [(3R,5S)-5-((1R,2S)-1-(cyclopropylsulfonylcarbamoyl)-2-vinylcyclopropylcarbamoyl)-1-((S)-2-(4-fluorophenylamino)non-8-enoyl)pyrrolidin-3-yl]4-floroisoindoline-2-carboxylate] | < 100 nM | 1000 to 10000 nM |
| CC[C@@H]1C[C@]1(NC(=O)[C@@H]1C[C@@H](OC(=O)N2Cc3cccc(Cl)c3C2)CN1C(=O)[C@@H](Nc1cc(F)cc(C(F)(F)F)c1)C(C)(C)C)C(=O)NS(=O)(=O)C1CC1 [Compound 73, (3R,5S)-5-((1R,2R)-1-(cyclopropylsulfonylcarbamoyl)-2-ethylcyclopropylcarbamoyl)-1-((S)-2-(3-fluoro-5-(trifluoromethyl)phenylamino)-3,3-dimethylbutanoyl)pyrrolidin-3-yl 4-chloroisoindoline-2-carboxylate] | < 100 nM |  |
| CC[C@@H]1C[C@]1(NC(=O)[C@@H]1C[C@@H](OC(=O)N2Cc3cccc(Cl)c3C2)CN1C(=O)[C@@H](Nc1cc(F)cc(C(F)(F)F)c1)C(C)(C)C)C(=O)NS(=O)(=O)C1CC1 [Compound 77] |  | < 100 nM |
| [(3R,5S)-5-(((1R,2R)-1-(Cyclopropylsulfonylcarbamoyl)-2-ethylcyclopropyl)carbamoyl)-1-((S)-2-(5-isopropylthiazol-2-ylamino)-3,3-dimethylbutanoyl)pyrrolidin-3-yl]4-chloroisoindoline-2-carboxylate [Compound 65] | < 100 nM |  |

Source: patent publication US7932277B2, “Peptide inhibitors of hepatitis C virus replication” (InterMune, Inc., priority 2007, dated 2011)
